Values of other authors, collected in US11077096B2, “Modified release compositions comprising tacrolimus” (Veloxis Pharmaceuticals A/S, priority 2003, dated 2021).

Key:
[1] = not given; remark: listed apart in the source

Solubility in chloroform (chloroform): very soluble
Solubility in ethanol (ethanol): freely soluble
Solubility in methanol (methanol): very soluble
Solubility in water (water): practically insoluble
bioavailability ([1]; after oral administration): ≤ 20%
mean time-to-peak concentration (tmax) ([1]; oral administration, healthy subjects or kidney or liver transplanted patients): 1 to 2 h
SMILES: C=CC[C@@H]1/C=C(\C)C[C@H](C)C[C@H](OC)[C@H]2O[C@@](O)(C(=O)C(=O)N3CCCC[C@H]3C(=O)OC(/C(C)=C/[C@@H]3CC[C@@H](O)[C@H](OC)C3)[C@H](C)[C@@H](O)CC1=O)[C@H](C)C[C@@H]2OC (stereo partly drawn) [Tacrolimus]
